Consider 4 molecules from ChEMBL document CHEMBL2046341, “α-glucosidase inhibitors from Brickellia cavanillesii” (J Nat Prod, 2012).

Assay [1] can be described thus: Mixed type inhibition of Saccharomyces cerevisiae alpha-glucosidase using p-nitrophenyl-alpha-D-glucopyranoside as substrate by Lineweaver-Burk plot and Dixon plot analysis.
A short description of assay [2]: Inhibition of Saccharomyces cerevisiae alpha-glucosidase using p-nitrophenyl-alpha-D-glucopyranoside as substrate preincubated for 5 mins prior to substrate addition measured after 35 mins by spectrophotocolorimetric assay.
A short description of assay [3]: Competitive inhibition of Saccharomyces cerevisiae alpha-glucosidase using p-nitrophenyl-alpha-D-glucopyranoside as substrate by Lineweaver-Burk plot and Dixon plot analysis.
Assay [4] in a line: Noncompetitive inhibition of Saccharomyces cerevisiae alpha-glucosidase using p-nitrophenyl-alpha-D-glucopyranoside as substrate by Lineweaver-Burk plot and Dixon plot analysis.

Usually Ki stands for the equilibrium dissociation constant of an inhibitor or competing ligand from its target. A high value points to lower affinity. In general, IC50 refers to the point on the concentration scale where inhibition reaches its midpoint.

Each structure is given as a SMILES string.

With `COc1cc(-c2oc3cc(O)cc(O)c3c(=O)c2O)ccc1O` [ISORHAMNETIN], the inhibition constant Ki in assay [1] came to 1910 µM. The molecule also showed an IC50 in assay [2] of 160 µM.

`C[C@H]1O[C@H](O[C@H]2[C@H](O)[C@@H](O)[C@@H](O[C@H]3[C@H](O)[C@@H](O)C(O)O[C@@H]3CO)O[C@@H]2CO)[C@H](O)[C@@H](O)[C@@H]1N[C@H]1C=C(CO)[C@@H](O)[C@H](O)[C@H]1O` (stereo partly drawn) [ACARBOSE] returned an inhibitory constant (Ki) in assay [3] of 260 µM. The IC50 in assay [2] is 340 µM.

In the case of `C=C1C(=O)O[C@@H]2C[C@@H](C)/C=C\C(=O)[C@](C)(O)[C@H](OC(C)=O)[C@@H](OC(=O)/C(C)=C/C)[C@@H]12` [CALEIN C], the inhibition constant Ki in assay [1] is 410 µM. The IC50 in assay [2] amounted to 280 µM.

Molecule `CC1(C)C=Cc2c(ccc(C(=O)CO)c2O)O1` registered a Ki in assay [4] of 130 µM. Further, in assay [2], the IC50 came to 420 µM.
